PMC10177510, “A Multicenter, Open-Label, Phase I/II Study of FN-1501 in Patients with Advanced Solid Tumors” (Cancers, 2023)

Test: Phase I/II dose escalation: safety and tolerability (DLT, TEAE)
Type: in vivo
Method: This Phase 1/2, FIH, open-label, multi-center, single-arm, dose-escalation study was conducted in pts with histologically or cytologically confirmed advanced solid tumors or R/R AML.
In the absence of worrisome toxicity, the remaining pts could be enrolled and dosed in that cohort. Safety evaluations were performed by investigators, the medical monitor, and the Sponsor. A Safety Monitoring Committee determined dose levels to be administered during dose escalation based on data available from the current and previous dose levels.

CN1CCN(Cc2ccc(NC(=O)c3[nH]ncc3Nc3ncnc4[nH]ccc34)cc2)CC1 [FN-1501]
Abdominal pain, patients with event (226 mg/day, N = 4): 0
Back pain, Grade ≥ 3 TEAE, n (%) (226 mg/day, N = 4): 2
Back pain, patients with event (226 mg/day, N = 4): 2
Constipation, patients with event (226 mg/day, N = 4): 0
Decreased appetite, patients with event (226 mg/day, N = 4): 1
Diarrhea, patients with event (226 mg/day, N = 4): 3
Diarrhoea, Grade ≥ 3 TEAE, n (%) (226 mg/day, N = 4): 1 (25)
Dizziness, patients with event (226 mg/day, N = 4): 1
Dyspnea, patients with event (226 mg/day, N = 4): 0
Fatigue, patients with event (226 mg/day, N = 4): 0
Hyponatraemia, Grade ≥ 3 TEAE, n (%) (226 mg/day, N = 4): 1
Hypophosphataemia, Grade ≥ 3 TEAE, n (%) (226 mg/day, N = 4): 1 (25)
Infusion related reaction, Grade ≥ 3 TEAE, n (%) (226 mg/day, N = 4): 1 (25)
Infusion-related reaction, patients with event (226 mg/day, N = 4): 1
Iron deficiency anaemia, Grade ≥ 3 TEAE, n (%) (226 mg/day, N = 4): 1 (25)
Nausea, patients with event (226 mg/day, N = 4): 1
Oedema peripheral, patients with event (226 mg/day, N = 4): 0
Pneumonia, Grade ≥ 3 TEAE, n (%) (226 mg/day, N = 4): 1 (25)
Pyrexia, patients with event (226 mg/day, N = 4): 0
Thrombocytopenia, Grade ≥ 3 TEAE, n (%) (226 mg/day, N = 4): 1 (25)
Total number of TEAEs (226 mg/day, N = 4): 46
Total patients with at least 1 TEAE (226 mg/day, N = 4): 4
Vomiting, patients with event (226 mg/day, N = 4): 2
Maximum tolerated dose (MTD) (IV TIW 2 weeks on, 1 week off): 170 mg/day
Maximum tolerated dose (MTD) (IV three times a week for 2 weeks, 21-day cycles): 170 mg
Abdominal distension, Grade ≥ 3 TEAE, n (%) (Total, N = 48): 1 (2)
Abdominal pain, Grade ≥ 3 TEAE, n (%) (Total, N = 48): 1
Abdominal pain, patients with event (Total, N = 48): 9
Acute kidney injury, Grade ≥ 3 TEAE, n (%) (Total, N = 48): 1
Adrenal insufficiency, Grade ≥ 3 TEAE, n (%) (Total, N = 48): 1 (2)
Anaemia, Grade ≥ 3 TEAE, n (%) (Total, N = 48): 1 (2)
Aspartate aminotransferase increased, Grade ≥ 3 TEAE, n (%) (Total, N = 48): 1
Back pain, patients with event (Total, N = 48): 6
Bacteraemia, Grade ≥ 3 TEAE, n (%) (Total, N = 48): 1
Bacterial sepsis, Grade ≥ 3 TEAE, n (%) (Total, N = 48): 1
Blood alkaline phosphatase increased, Grade ≥ 3 TEAE, n (%) (Total, N = 48): 1 (2)
Blood bilirubin increased, Grade ≥ 3 TEAE, n (%) (Total, N = 48): 1 (2)
Blood creatinine increased, Grade ≥ 3 TEAE, n (%) (Total, N = 48): 1
Catheter site infection, Grade ≥ 3 TEAE, n (%) (Total, N = 48): 1
Constipation, patients with event (Total, N = 48): 7
Decreased appetite, patients with event (Total, N = 48): 6
Dehydration, Grade ≥ 3 TEAE, n (%) (Total, N = 48): 1
Delirium, Grade ≥ 3 TEAE, n (%) (Total, N = 48): 1
Dizziness, patients with event (Total, N = 48): 7
Dyspnea, patients with event (Total, N = 48): 6
Fatigue, patients with event (Total, N = 48): 15
Hypophosphataemia, Grade ≥ 3 TEAE, n (%) (Total, N = 48): 1
Hypoxia, Grade ≥ 3 TEAE, n (%) (Total, N = 48): 1
Infusion related reaction, Grade ≥ 3 TEAE, n (%) (Total, N = 48): 1
Infusion-related reaction, patients with event (Total, N = 48): 7
Iron deficiency anaemia, Grade ≥ 3 TEAE, n (%) (Total, N = 48): 1
Lethargy, Grade ≥ 3 TEAE, n (%) (Total, N = 48): 1
Lipase increased, Grade ≥ 3 TEAE, n (%) (Total, N = 48): 1 (2)
Lung infection, Grade ≥ 3 TEAE, n (%) (Total, N = 48): 1
Neutropenia, Grade ≥ 3 TEAE, n (%) (Total, N = 48): 1
Oedema peripheral, patients with event (Total, N = 48): 5
Peritonitis, Grade ≥ 3 TEAE, n (%) (Total, N = 48): 1 (2)
Pneumonia aspiration, Grade ≥ 3 TEAE, n (%) (Total, N = 48): 1 (2)
Pneumothorax, Grade ≥ 3 TEAE, n (%) (Total, N = 48): 1 (2)
Pyrexia, patients with event (Total, N = 48): 5
Sepsis, Grade ≥ 3 TEAE, n (%) (Total, N = 48): 1 (2)
Stomatitis, Grade ≥ 3 TEAE, n (%) (Total, N = 48): 1
Syncope, Grade ≥ 3 TEAE, n (%) (Total, N = 48): 1 (2)
Thrombocytopenia, Grade ≥ 3 TEAE, n (%) (Total, N = 48): 1
Total number of TEAEs (Total, N = 48): 381
Total patients with at least 1 TEAE (Total, N = 48): 45
Vascular access complication, Grade ≥ 3 TEAE, n (%) (Total, N = 48): 1
Grade 1–2 diarrhea (TEAE), pts (abstract, all doses): 26%
Grade 1–2 fatigue (TEAE), pts (abstract, all doses): 34%
Grade 1–2 nausea (TEAE), pts (abstract, all doses): 32%
Treatment-related adverse events (TRAEs), pts (all doses 2.5 to 226 mg IV): 64%
Abdominal distension, pts (all doses, N = 48): 4
Gastrointestinal (GI) disorders, pts (all doses, N = 48): 30 (63%)
Grade 1 or 2 fatigue, pts (discussion, all doses): 21%
Grade 1 or 2 nausea, pts (discussion, all doses): 19%
DLTs (doses of 170 mg or lower): No DLTs
